Test results: US5985937A, “Use of 2,4-distributed phenol derivatives as 5-lipoxygenase inhibitors” (priority 1994, dated 1999)
“Also recorded” adds a separate entry of the source.

Legend:
[1] = tested on: chronic intestinal pathology, chronic lymphoplasmocitary enteritis and hemorrhagic cholitis; assay: treatment of dogs with gastrointestinal diseases; assay type: in vivo, dog; conditions: ten dogs, 1-2 mg/kg.day
Protocol: A total of ten dogs diagnosed chronic intestinal pathology, chronic lymphoplasmocitary enteritis (diagnosed through a biopsy and more than a year of evolution) and hemorrhagic cholitis, were treated with doses of 1-2 mg/kg.day of Bobel-24.

5-lipoxygenase (5-LO) = biological target: T1, 5-lipoxygenase (5-LO) (Homo sapiens, UniProt P09917); assay: 5-LO inhibiting activity in human polymorphonuclear leukocytes ([14C]-arachidonic acid, A23187; HPLC of eicosanoids); assay type: cell-based
T1 construct: endogenous in cells; host or cells: human polymorphonuclear leukocytes from donor blood
T1 sequence (P09917 1-674): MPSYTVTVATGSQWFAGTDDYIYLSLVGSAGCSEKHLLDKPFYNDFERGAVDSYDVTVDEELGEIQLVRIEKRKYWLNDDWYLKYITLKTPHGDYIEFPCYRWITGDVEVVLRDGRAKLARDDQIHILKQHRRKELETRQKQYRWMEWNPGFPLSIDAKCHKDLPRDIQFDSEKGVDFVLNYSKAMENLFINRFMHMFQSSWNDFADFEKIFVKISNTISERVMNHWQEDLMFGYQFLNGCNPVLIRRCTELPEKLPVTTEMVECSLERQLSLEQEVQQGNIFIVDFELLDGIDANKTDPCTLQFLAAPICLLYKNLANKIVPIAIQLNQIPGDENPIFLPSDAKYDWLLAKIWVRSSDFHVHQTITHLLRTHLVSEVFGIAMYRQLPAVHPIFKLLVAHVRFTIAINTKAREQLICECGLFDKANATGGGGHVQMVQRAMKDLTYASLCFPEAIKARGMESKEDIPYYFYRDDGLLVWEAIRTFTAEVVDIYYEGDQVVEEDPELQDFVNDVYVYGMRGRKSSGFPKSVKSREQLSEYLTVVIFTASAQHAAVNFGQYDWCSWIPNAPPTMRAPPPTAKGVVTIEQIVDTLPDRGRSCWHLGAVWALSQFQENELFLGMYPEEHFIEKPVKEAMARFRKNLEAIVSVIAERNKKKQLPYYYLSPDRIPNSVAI
Protocol: In order to show the 5-LO inhibiting activity of the products of the present invention, a specific test based on human polymorphonuclear leukocytes is chosen.
5-LO Inhibiting Activity in Polymorphonuclear Leukocytes
Blood was obtained from donors which had not received medication during the ten days previous to the extraction. The blood was treated with an anticoagulant (ACD-A) and was centrifuged at 200 g during 12 min at room temperature, separating the supernatant. A solution of Dextran T-500 in physiological serum was added to the pellet, in order to obtain a final concentration of 0.6% w/v, and was allowed to sediment during 40 min. The supernatant was centrifuged at 180 g during 10 min at room temperature. The pellet was resuspended in 5 ml of Hank's buffer, pH 7.4. After the addition of 3 ml of Lymphoprep, the suspension was centrifuged at 450 g during 30 min, and the layers of supernatant were discarded. The next step was the lysis of the erythrocytes present by adding 2 ml of a saline solution. The resulting volume was adjusted to 10 ml with Hank's buffer, pH 7.4. The solution was centrifuged during 10 min at 180 g; the supernatant was discarded and the resulting pellet was resuspended in 1-2 ml of Hank's buffer, pH 7.4. The cellular density was determined using a haemocytometer using the procedure of microcollection Unopette to determine the levels of platelet contamination. Cellular density was adjusted to 2×10^7 cells/ml with Hank's buffer, pH 7.4 and CaCl2 was added to a final concentration of 1.5 mM.
Aliquots (0.5 ml) of the polymorphonuclear leukocytes suspensions, obtained as described in part (a), were incubated during 5 min at 37° C. in the absence (control) and in the presence of three different concentrations of each drug. Afterwards an ethanol solution of [^14 C]-arachidonic acid and A23187 ionophore was added to obtain a final concentration of 10 and 5 μM, respectively. After 5 min of incubation the reaction was stopped by addition of 0.5 ml of ice-cold ethanol. Samples were centrifuged during 2 min at 1500 g, and the supernatants were kept at -80° C. until analyzed. Controls were carried out using the polymorphonuclear leukocyte suspensions aliquots in the presence of the solvent (DMSO) only.
The analysis of the products from the transformation of arachidonic acid through the action of the lipoxygenase (these products being the eicosanoids) was carried out using high pressure liquid chromatography (HPLC), in a reverse phase column (Ultrasphere-ODS, Beckman), injecting 500 μl of the supernatants obtained from the incubations. Elution was carried out using an isocratic mix of mathanol:water:triethylamine:trifluoroacetic acid, 75:25:0.05:0.10, with a flux of 1 ml/min. Detection was carried out with a radioactivity detector with a liquid scintillation cell on-line coupled with the column.

rats = assay: chronic toxicity in rats; assay type: in vivo, rat; conditions: 350 mg/kg.day, 6 months; hematological, biochemical, anatomy-pathological
dogs = assay: acute toxicity in dogs; assay type: in vivo, dog; conditions: after 28 days at doses of 200, 300, 400, 1000 and 2000 mg/kg
[2] = tested on: canine seborrheic dermatitis; assay: clinical trial on canine seborrheic dermatitis; assay type: in vivo, dog; set-up: key to Evolution, etiology idiopathic / Evolution, etiology demodex / Evolution, etiology follicular cyst / Evolution, etiology pyoderma / Evolution, etiology dermatomycosis / Evolution, etiology allergic to fleas / Evolution, etiology hypothyroidism / Evolution, etiology leishmaniosis: +++: very good response, clinically cured; ++: good response, marked lowering in the clinical signs; +: moderate response, improvement; -: negative response or no apparent improvement; key to Evolution, etiology dermatophytes: +++: very good response, total recovery; ++: good response, functionability recovery; +: moderate response, improvement; -: negative response or no apparent improvement
Protocol: The animals had been diagnosed to suffer from seborrheic dermatitis, and the diagnosis was confirmed by a biopsy. The treatment consisted of a weekly bath with a 2% Bobel-24 shampoo and evaluation of the treatment after 15 days. The efficiency of the treatment was analyzed evaluating the following therapeutic symptoms; removal of scabs and scales, greasiness reduction, sheborrheic odor reduction, relieve of the pruritus, and antiinflammatory effect. […] In view of the results the following conclusions were reached: […]

[3] = weekly bath 2% shampoo, 15 days, Scotty T 4 years

Oc1c(I)cc(I)cc1I [Bobel-24, 2,4,6-triiodophenol]
response [1]: responded very positively in a short time (1-2 weeks) | IC50 (5-lipoxygenase (5-LO)): 10 µM | products derived from 5-LO biosynthesis (chromatogram) (5-lipoxygenase (5-LO); 25 μM, arachidonic acid 10 μM, FIG. 2): practically complete disappearance of the products derived from 5-LO biosynthesis | 15-HETE and 12-HETE formation (5-lipoxygenase (5-LO); 25 μM, arachidonic acid 10 μM, due to contaminating platelets): increment in 15-HETE and 12-HETE | concentration of biosynthesis products versus concentration of the drug (5-lipoxygenase (5-LO); LTB4, 6-trans-LTB4, 5-HETE, 20-OH-LTB4, FIGS. 3 and 4): decreased in approximately linear with the concentration of the drug used | concentration required for a given inhibition relative to benoxaprofen or ketaconozale (5-lipoxygenase (5-LO); ratio from IC50): approximately one tenth; also recorded: ten times smaller | inhibition at 25 µM (5-lipoxygenase (5-LO); read-out: 5-LO inhibitory activity, approximate inhibition percentage): 100% | gradient of decrease of 5-LO products with concentration, compared with the other two drugs (5-lipoxygenase (5-LO); versus benoxaprofen and ketoconazole, FIGS. 3 and 4): gradients were greater | chronic toxicity in rats (rats): not observed | acute toxicity in dogs (dogs): not observed | secondary or adverse effects (mucosal or skin irritation, unpleasant smells) ([2]; 2% shampoo, topical): absence of secondary or adverse effects | scabs, greasiness, seborrheic odor, erithema and pruritus ([2]; 2% shampoo, all animals except one with dermatophytosis): a lowering of the scabs, disappearance of the greasiness and the seborrheic odor, disappearance of the erithema and the pruritus was observed | result in idiopathic seborrheic dermatitis ([2]; 2% shampoo, improvement similar to oral therapy of corticoids): excellent | result in secondary seborrheic dermatitis ([2]; Bobel-24 shampoo): the shampoo improves the aspect of the fur, but does not combat the ethiological agent responsible for the disease | Evolution, etiology hypothyroidism ([2]; weekly bath 2% shampoo, 15 days, Cocker A 9 years): ++ | Evolution, etiology leishmaniosis ([2]; weekly bath 2% shampoo, 15 days, Cocker S 8 years): ++ | Evolution, etiology demodex ([2]; weekly bath 2% shampoo, 15 days, Mongrel 4 years): ++ | Evolution, etiology allergic to fleas [2, 3]: ++ | Evolution, etiology dermatophytes [2, 3]: - | Evolution, etiology follicular cyst ([2]; weekly bath 2% shampoo, 15 days, Yorkshire 7 years): ++ | Evolution, etiology idiopathic ([2]; weekly bath 2% shampoo, 15 days, b367 Cocker A 13, b393 Cocker S 15, b394 Cocker S 12 years): +++ | Evolution, etiology pyoderma ([2]; weekly bath 2% shampoo, 15 days, b373 Pekinese 2, b396 German shepherd 10 years): ++ | Evolution, etiology dermatomycosis ([2]; weekly bath 2% shampoo, 15 days, b381 Schnauzer 3, b387 German shepherd 1 year): ++
